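Dose response: 5 concentrations. Exposure: 48 h. Format: 96-well plates. Endpoint: linear interpolation; highest concentration if not reached. Abbreviation: GI50, concentration required for 50% inhibition of growth. TGI: total growth inhibition.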
What was measured:
Assay in all cases: NCI-60 cell line screen, 48 h
[1] = test system: M14 melanoma
[2] = test system: SK-MEL-2 melanoma
[3] = test system: SR leukemia
[4] = test system: NCI-H522 lung
[5] = test system: OVCAR-8 ovarian
[6] = test system: MOLT-4 leukemia
[7] = test system: SN12C renal
[8] = test system: IGROV1 ovarian
[9] = test system: MALME-3M melanoma
[10] = test system: KM12 colon
[11] = test system: HCT-116 colon
[12] = test system: SF-268 CNS
[13] = test system: A498 renal
[14] = test system: EKVX NSCLC
[15] = test system: SF-295 CNS
[16] = test system: SNB-19 CNS
[17] = test system: UACC-257 melanoma
[18] = test system: TK-10 renal
[19] = test system: SK-MEL-28 melanoma
[20] = test system: OVCAR-3 ovarian
[21] = test system: SW-620 colon
[22] = test system: BT-549 breast
[23] = test system: COLO 205 colon
[24] = test system: OVCAR-5 ovarian
[25] = test system: RPMI-8226 leukemia
[26] = test system: PC-3 prostate
[27] = test system: NCI-H460 lung
[28] = test system: SK-MEL-5 melanoma
[29] = test system: ACHN renal
[30] = test system: CAKI-1 renal
[31] = test system: MDA-MB-231 breast
[32] = test system: HL-60(TB) leukemia
[33] = test system: RXF 393 renal
[34] = test system: NCI-H226 lung
[35] = test system: SF-539 CNS
[36] = test system: SK-OV-3 ovarian
[37] = test system: HT29 colon
[38] = test system: MDA-MB-468 breast
[39] = test system: CCRF-CEM leukemia
[40] = test system: HOP-62 NSCLC
[41] = test system: HOP-92 NSCLC
[42] = test system: NCI-H23 lung
[43] = test system: LOX IMVI melanoma
[44] = test system: DU-145 prostate
[45] = test system: HCC-2998 colon
[46] = test system: T-47D breast
[47] = test system: UO-31 renal
[48] = test system: 786-0 renal
[49] = test system: UACC-62 melanoma
[50] = test system: MDA-MB-435
[51] = test system: NCI/ADR-RES ovarian
[52] = test system: U251 CNS
[53] = test system: HCT-15 colon
[54] = test system: SNB-75 CNS
[55] = test system: A549 NSCLC
[56] = test system: MCF7 breast
[57] = test system: HS 578T breast

Cc1ccc(S(=O)(=O)c2nc(-c3ccccc3)oc2S(=O)(=O)CC(=O)N2CCCC2)cc1
GI50 [1]: 1.77 µM
TGI [1]: 4.15 µM
GI50 [2]: 13.1 µM
TGI [2]: 26.2 µM
GI50 [3]: 1.49 µM
TGI [3]: 6.6 µM
GI50 [4]: 1.06 µM
TGI [4]: 2.49 µM
GI50 [5]: 7.2 µM
TGI [5]: 25.1 µM
GI50 [6]: 1.73 µM
TGI [6]: 5.22 µM
GI50 [7]: 6.68 µM
TGI [7]: 19.6 µM
GI50 [8]: 6.54 µM
TGI [8]: 20.8 µM
GI50 [9]: 1.55 µM
TGI [9]: 2.95 µM
GI50 [10]: 14.9 µM
TGI [10]: 32 µM
GI50 [11]: 1.52 µM
TGI [11]: 3.34 µM
GI50 [12]: 12.2 µM
TGI [12]: 33.2 µM
GI50 [13]: 11.9 µM
TGI [13]: 24.3 µM
GI50 [14]: 2.44 µM
TGI [14]: 7.76 µM
GI50 [15]: 12.2 µM
TGI [15]: 25 µM
GI50 [16]: 14.5 µM
TGI [16]: 27.6 µM
GI50 [17]: 1.73 µM
TGI [17]: 3.73 µM
GI50 [18]: 1.7 µM
TGI [18]: 3.15 µM
GI50 [19]: 1.82 µM
TGI [19]: 3.54 µM
GI50 [20]: 1.27 µM
TGI [20]: 2.66 µM
GI50 [21]: 0.801 µM
TGI [21]: 2.24 µM
GI50 [22]: 3.89 µM
TGI [22]: 11.8 µM
GI50 [23]: 1.89 µM
TGI [23]: 4.38 µM
GI50 [24]: 11 µM
TGI [24]: 23.4 µM
GI50 [25]: 2.68 µM
TGI [25]: > 100 µM
GI50 [26]: 11.8 µM
TGI [26]: 30.7 µM
GI50 [27]: 7 µM
TGI [27]: 22.5 µM
GI50 [28]: 12.5 µM
TGI [28]: 25.2 µM
GI50 [29]: 1.36 µM
TGI [29]: 2.65 µM
GI50 [30]: 1.21 µM
TGI [30]: 2.5 µM
GI50 [31]: 1.63 µM
TGI [31]: 3.11 µM
GI50 [32]: 0.978 µM
TGI [32]: 3.48 µM
GI50 [33]: 1.08 µM
TGI [33]: 2.41 µM
GI50 [34]: 13.3 µM
TGI [34]: 34.7 µM
GI50 [35]: 1.54 µM
TGI [35]: 2.91 µM
GI50 [36]: 15.6 µM
TGI [36]: 30.5 µM
GI50 [37]: 1.54 µM
TGI [37]: 4.05 µM
GI50 [38]: 0.587 µM
TGI [38]: 1.97 µM
GI50 [39]: 0.529 µM
TGI [39]: 2.95 µM
GI50 [40]: 14.4 µM
TGI [40]: 31 µM
GI50 [41]: 2.71 µM
TGI [41]: 8.32 µM
GI50 [42]: 8.06 µM
TGI [42]: 23.6 µM
GI50 [43]: 1.45 µM
TGI [43]: 2.82 µM
GI50 [44]: 1.63 µM
TGI [44]: 3.37 µM
GI50 [45]: 11.2 µM
TGI [45]: 24.1 µM
GI50 [46]: 1.78 µM
TGI [46]: 4.94 µM
GI50 [47]: 1.36 µM
TGI [47]: 2.66 µM
GI50 [48]: 1.45 µM
TGI [48]: 2.93 µM
GI50 [49]: 4.53 µM
TGI [49]: 16.5 µM
GI50 [50]: 3.08 µM
TGI [50]: 13.8 µM
GI50 [51]: 11.4 µM
TGI [51]: 65 µM
GI50 [52]: 15.5 µM
TGI [52]: 29.7 µM
GI50 [53]: 1.4 µM
TGI [53]: 2.92 µM
GI50 [54]: 3.89 µM
TGI [54]: 17.4 µM
GI50 [55]: 13.1 µM
TGI [55]: 29.1 µM
GI50 [56]: 1.17 µM
TGI [56]: 2.9 µM
GI50 [57]: 3.68 µM
TGI [57]: 28.2 µM
